The target in data set [1] is T1, Receptor-interacting serine/threonine-protein kinase 1 (Homo sapiens, UniProt Q13546).
T1 sequence (Q13546 whole entry): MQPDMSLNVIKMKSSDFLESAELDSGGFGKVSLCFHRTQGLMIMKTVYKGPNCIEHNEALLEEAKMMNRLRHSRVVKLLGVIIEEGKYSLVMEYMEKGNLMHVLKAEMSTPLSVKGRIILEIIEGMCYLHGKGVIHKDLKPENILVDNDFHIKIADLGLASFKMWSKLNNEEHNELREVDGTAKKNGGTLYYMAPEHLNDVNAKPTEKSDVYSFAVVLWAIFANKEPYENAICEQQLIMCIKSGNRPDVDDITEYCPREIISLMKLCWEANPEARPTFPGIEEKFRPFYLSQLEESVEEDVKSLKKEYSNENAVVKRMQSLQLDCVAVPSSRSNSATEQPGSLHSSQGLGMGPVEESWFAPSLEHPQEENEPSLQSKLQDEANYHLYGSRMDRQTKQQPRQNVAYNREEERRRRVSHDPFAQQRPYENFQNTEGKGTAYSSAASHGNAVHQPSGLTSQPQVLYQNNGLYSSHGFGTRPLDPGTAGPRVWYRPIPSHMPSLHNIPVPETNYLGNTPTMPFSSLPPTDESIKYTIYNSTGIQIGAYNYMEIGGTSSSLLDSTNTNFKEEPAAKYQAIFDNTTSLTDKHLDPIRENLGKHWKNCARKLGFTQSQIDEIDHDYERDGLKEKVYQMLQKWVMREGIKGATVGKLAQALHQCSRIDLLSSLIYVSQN
In words: Inhibition of human RIPK1 by ADP-Glo kinase assay.

Data set [2] is described as follows: Intrinsic clearance in human liver microsomes measured per mg protein. It counts as ADME, Microsome. The conditions noted are these: read-out: CLH. A general note: Microsomes from liver hold many membrane-bound enzymes, among them those of drug oxidation.
A short description of data set [3]: Intrinsic clearance in mouse liver microsomes measured per mg protein. Particulars: read-out: CLH. In kind it is ADME, Microsome.
Data set [4] is described as follows: Plasma concentration in non-fasted NMRI mouse at 10 mg/kg, po measured after 0.5 hrs by HPLC-MS analysis. In kind it is ADME, organism-based.
Data set [5] is described as follows: Plasma concentration in non-fasted NMRI mouse at 10 mg/kg, po measured after 2 hrs by HPLC-MS analysis. In kind it is ADME, organism-based.
The subject of a further data set is Mus musculus. As to the kind of experiment: In vivo inhibition of RIPK1 in TNF-alpha-induced acute hypothermia NMRI mouse model assessed as decrease in TNF-alpha-induced severe core body temperature loss at 30 mg/kg, po administered 15 mins prior to TNF-alpha challenge and measured at 90 mins interval for 6 hrs. In kind it is functional, organism-based. The conditions noted are these: time 375.0 min.

pKi: −log10 of the molar value. Active and inactive are the calls of the source. The calls are words filed in the database; no cut-off is given here.

Turning to `CN1C(=O)C(C(=O)Nc2cn(Cc3ccccc3)cn2)CCc2cc(C#CC3(O)COC3)ccc21` (configuration not stated), in data set [1], the pKi – broadly, the Ki on a negative log10 scale, so that one unit is a factor of ten – is 6.72. In addition, the results for the microsomal CLint in data set [2] and in data set [3] were 18.2 µL/min/mg and 42.2 µL/min/mg, respectively.
As to `CN1C(=O)C(C(=O)Nc2cn(Cc3ccccc3)cn2)CCc2ccc(C#CC3(C)COC3)cc21` (configuration not stated), in data set [1], the negative-log Ki (pKi) is 7.55. For the same compound, the microsomal CLint was 124 µL/min/mg in data set [2] and 238 µL/min/mg in data set [3].
In the case of `CN1C(=O)[C@@H](NC(=O)c2nnc(Cc3ccccc3)[nH]2)COc2cccnc21` [ECLITASERTIB], the pKi in data set [1] was 8.70.
As for `CN1C(=O)C(C(=O)Nc2cn(Cc3ccccc3)cn2)CCc2ccc(Br)cc21` (configuration not stated), the pKi in data set [1] was 7.06. The microsomal CLint in data set [2] came to 75.7 µL/min/mg; in data set [3] it was 211 µL/min/mg.
For the compound `CC#Cc1ccc2c(c1)N(C)C(=O)C(C(=O)Nc1cn(Cc3ccccc3)cn1)CC2` (configuration not stated), the pKi in data set [1] is 7.45. Also, the results for the microsomal CLint in data set [2] and in data set [3] were 105 µL/min/mg and 312 µL/min/mg, respectively.
For the compound `CC(=O)NC(C)(C)C#Cc1ccc2c(c1)N(C)C(=O)C(C(=O)Nc1cn(Cc3ccccc3)cn1)CC2` (configuration not stated), the pKi in data set [1] is 7.56. The microsomal CLint in data set [2] was 7.7 µL/min/mg; in data set [3], 29 µL/min/mg.
In turn, `CN1C(=O)C(C(=O)Nc2cn(Cc3ccccc3)cn2)CCc2ccc(C#CC3CC3)cc21` (configuration not stated) showed a pKi in data set [1] of 7.54. The microsomal CLint came out at 66.5 µL/min/mg in data set [2] and 300 µL/min/mg in data set [3].
As to `CN1C(=O)C(C(=O)Nc2cn(Cc3ccccc3)cn2)CCc2ccc(C#CC3(O)COC3)cc21` (configuration not stated), the pKi in data set [1] was 7.42. The microsomal CLint turned out to be 44.4 µL/min/mg in data set [2] and 128 µL/min/mg in data set [3].
`COC(C)(C)C#Cc1ccc2c(c1)N(C)C(=O)C(C(=O)Nc1cn(Cc3ccccc3)cn1)CC2` (configuration not stated) had a pKi in data set [1] of 7.59. The microsomal CLint in data set [2] came to 194 µL/min/mg; in data set [3], 210 µL/min/mg.
Turning to `CN1C(=O)[C@@H](C(=O)Nc2cn(Cc3ccccc3)cn2)CCc2ccc(C#CC(C)(C)O)cc21`, in data set [1], the negative logarithm of the Ki (pKi) is 7.94. Also, the microsomal CLint in data set [2] was 7.6 µL/min/mg; in data set [3] it was 33 µL/min/mg. In addition, in data set [4], the concentration at 0.5 h amounted to 1340 nM. Further, in data set [5], the concentration at 2 h came out at 329 nM. In the data set on Mus musculus, the inhibition result was “Active”.
`CN1C(=O)[C@H](C(=O)Nc2cn(Cc3ccccc3)cn2)CCc2ccc(C#CC(C)(C)O)cc21`: the negative logarithm of the Ki (pKi) in data set [1] was 6.40. In addition, the microsomal CLint in data set [2] turned out to be 32.7 µL/min/mg; in data set [3], 202 µL/min/mg.
In data set [1], `CC(C)C#Cc1ccc2c(c1)N(C)C(=O)C(C(=O)Nc1cn(Cc3ccccc3)cn1)CC2` (configuration not stated) gave a negative logarithm of the Ki (pKi) of 7.12. In addition, the figures for the microsomal CLint in data set [2] and in data set [3] were 99 µL/min/mg and 693 µL/min/mg, respectively.
For `CN1C(=O)C(C(=O)Nc2cn(Cc3ccccc3)cn2)CCc2ccc(C#CC(C)(C)N)cc21` (configuration not stated), in that order: 7.18, 21.1 µL/min/mg and 50.8 µL/min/mg.
On the same counts, the results for `CN1C(=O)C(C(=O)Nc2cn(Cc3ccccc3)cn2)CCc2ccc(C#CC(C)(C)O)cc21` (racemic) are 7.23, 26.5 µL/min/mg and 158 µL/min/mg.
On the same counts, the results for `CN1C(=O)C(C(=O)Nc2cn(Cc3ccccc3)cn2)CCc2cc(Br)ccc21` (configuration not stated) are 6.44, 31.1 µL/min/mg and 176 µL/min/mg.
In turn, `CN1C(=O)C(C(=O)Nc2cn(Cc3ccccc3)cn2)CCc2cc(C#CC(C)(C)O)ccc21` (configuration not stated) had a pKi in data set [1] of 6.60. Also, the figures for the microsomal CLint in data set [2] and in data set [3] were 6.6 µL/min/mg and 29.4 µL/min/mg, respectively.
In data set [1], `CN1C(=O)C(C(=O)Nc2cn(Cc3ccccc3)cn2)CCc2ccc(C#CC3CCOCC3)cc21` (configuration not stated) showed a negative-log Ki (pKi) of 7.65. The microsomal CLint stood at 106 µL/min/mg in data set [2] and 234 µL/min/mg in data set [3].

The values above are taken from ChEMBL document CHEMBL6074643, “Harnessing dual-mode RIPK1 ligands for cross-species anti-necroptosis inhibitor compounds” (Bioorg Med Chem Lett, 2024).
